pEC50: −log10 of the molar value.
System: VGLUTs (GLU vesicular transport)
Test: Vesicular glutamate reuptake test ([3H]-glutamate, synaptic vesicles)
Format: biochemical, rat
Details: for pEC50: vesicular glutamate transport; for potency in words (EC50): based on EC50
Method: The EC50 was also determined for several of the compounds of the invention.
The vesicular glutamate reuptake was tested as previously described (Kish and Ueda, 1989; Naito and Ueda, 1985; Pietrancosta et al., 2010) with minor modifications. Aliquots of synaptic vesicles […] (obtained by differential centrifugation of rat cortex) were diluted in a solution containing 4 mM HEPES-KOH, pH 7.4 and 0.32M sucrose. The tested compounds were dissolved in 1% ethanol, 1% DMSO (pH was adjusted to 7.4 with 5% KOH) to initial concentrations comprised between 2 mM and 200 μM. The compounds were then diluted to desired final concentrations in a solution containing 10 mM HEPES-KOH, pH 7.4, 0.32 M sucrose, 4 mM KCl, 4 mM MgSO4 (named TPU). The tested compounds were pre-incubated in a solution containing 3 mM ATP-Mg, 1 mM L-aspartic acid, 100 μM glutamate and 0.4 mM […] and 0.4 μM [3H]-Glutamate (1.547 TBq/mmol). After 4 min at 37 °C, the reuptake reaction was initiated by the addition of rat synaptic vesicles. This mixture was incubated for 10 min at 37 °C before adding ice-cold TPU (3.5 mL) and rapidly filtering it through a membrane filter ([…], Millipore MF reference HAWP02500) using a vacuum collector. The filters were washed five times with 3.5 mL of cold TPU and placed in scintillation vials with a scintillation cocktail (optiphase hisafe 3, reference 1200-437, Perkin Elmer). The radioactivity related to the filters was measured in a Beckman LS 6500 scintillation spectrophotometer. The values obtained in the absence of ATP-Mg or in the presence of Carbonyl [COMPOUND LEFT OUT] 3-chlorophenylhydrazone (CCCP, 50 μM reference Sigma C2759) were used to determine the non-specific activity.

Structure (SMILES): O=C(O)c1cc2cc(C#Cc3ccccc3)c(O)cc2oc1=O [LSP17-1177, 7-hydroxy-2-oxo-6-(phenylethynyl)-2H-chromene-3-carboxylic Acid]
- % inhibition of GLU vesicular transport at 20 μM (coumarin-derived compounds): 20%
- pEC50 (coumarin-derived compounds): 3.57

Structure (SMILES): O=C(O)c1cc2cc(C#Cc3ccccc3)ccc2oc1=O [LSP17-1044, 2-oxo-6-(phenylethynyl)-2H-chromene-3-carboxylic Acid]
- % inhibition of GLU vesicular transport at 20 μM (coumarin-derived compounds): 30%

Structure (SMILES): CCN(CC)c1cc2oc(=O)c(C(=O)O)cc2cc1-n1cc(-c2ccccc2)nn1 [LSP17-1153, 7-(diethylamino)-2-oxo-6-(4-phenyl-1H-1,2,3-triazol-1-yl)-2H-chromene-3-carboxylic Acid]
- % inhibition of GLU vesicular transport at 20 μM (coumarin-derived compounds): 62%
- pEC50 (coumarin-derived compounds): 4.82

Structure (SMILES): O=C(O)c1cc(C(=O)O)c2cc(/C=C/c3ccc(-c4ccc(/C=C/c5ccc6nc(C(=O)O)cc(C(=O)O)c6c5)cc4)cc3)ccc2n1 [LSP13-1173-YL173, 6,6′-2,2′-(biphenyl-4,4′-diyl)bis(ethene-2,1-diyl)diquinoline-2,4-dicarboxylic Acid]
- % inhibition of GLU vesicular transport at 20 μM (quinoline-derived compounds): 72%
- pEC50 (quinoline-derived compounds): 4.82

Structure (SMILES): O=C(O)c1cc2cc(/C=C/c3ccccc3)ccc2oc1=O [LSP16-2074, (E)-2-oxo-6-styryl-2H-chromene-3-carboxylic Acid]
- % inhibition of GLU vesicular transport at 20 μM (coumarin-derived compounds): 30%

Structure (SMILES): COc1cc2oc(=O)c(C(=O)O)cc2cc1/N=N/c1ccc(Br)cc1 [LSP9-3164]
- % inhibition of GLU vesicular transport at 20 μM (coumarin-derived compounds): 40%
- pEC50 (coumarin-derived compounds): 4.52

Structure (SMILES): COc1cc2oc(=O)c(C(=O)O)cc2cc1/N=N/c1ccccc1 [LSP9-4108, (E)-7-methoxy-2-oxo-6-(phenyldiazenyl)-2H-chromene-3-carboxylic Acid]
- % inhibition of GLU vesicular transport at 20 μM (coumarin-derived compounds): 30%
- pEC50 (coumarin-derived compounds): 4.30

Structure (SMILES): O=C(O)c1cc2cc(/N=N/c3ccc(Br)cc3)ccc2oc1=O [LSP9-3160, (E)-6-((4-bromophenyl)diazenyl)-2-oxo-2H-chromene-3-carboxylic Acid]
- % inhibition of GLU vesicular transport at 20 μM (coumarin-derived compounds): 14%

Structure (SMILES): COc1cc2oc(=O)c(C(=O)O)cc2cc1/N=N/c1ccc(-c2ccc(N)cc2)cc1 [LSP9-4089, (E)-6-((4′-aminobiphenyl-4-yl)diazenyl)-7-methoxy-2-oxo-2H-chromene-3-carboxylic Acid]
- % inhibition of GLU vesicular transport at 20 μM (coumarin-derived compounds): 35%

Structure (SMILES): COc1cc2oc(=O)c(C(=O)O)cc2cc1C#Cc1ccccc1 [LSP17-1046, 7-methoxy-2-oxo-6-(phenylethynyl)-2H-chromene-3-carboxylic Acid]
- % inhibition of GLU vesicular transport at 20 μM (coumarin-derived compounds): 48%
- pEC50 (coumarin-derived compounds): 4.68

Structure (SMILES): COc1cc2oc(=O)c(C(=O)O)cc2cc1/C=C/c1ccccc1 [LSP16-2077, (E)-7-methoxy-2-oxo-6-styryl-2H-chromene-3-carboxylic acid]
- % inhibition of GLU vesicular transport at 20 μM (coumarin-derived compounds): 30%

Structure (SMILES): COc1cc2oc(=O)c(C(=O)O)cc2cc1C#Cc1ccc(-c2ccc(N)cc2)cc1 [LSP17-1127, 6-((4′-amino-[1,1′-biphenyl]-4-yl)ethynyl)-7-methoxy-2-oxo-2H-chromene-3-carboxylic Acid]
- % inhibition of GLU vesicular transport at 20 μM (coumarin-derived compounds): 40%

Structure (SMILES): O=C(O)c1cc2cc(/N=N/c3ccccc3)ccc2oc1=O [LSP9-4126, (E)-2-oxo-6-(phenyldiazenyl)-2H-chromene-3-carboxylic Acid]
- % inhibition of GLU vesicular transport at 20 μM (coumarin-derived compounds): 5%

Structure (SMILES): CCN(CC)c1cc2oc(=O)c(C(=O)O)cc2cc1-n1cc(-c2ccc(-c3ccc(N)cc3)cc2)nn1 [LSP17-1154, 6-(4-(4′-amino-[1,1′-biphenyl]-4-yl)-1H-1,2,3-triazol-1-yl)-7-(diethylamino)-2-oxo-2H-chromene-3-carboxylic Acid]
- % inhibition of GLU vesicular transport at 20 μM (coumarin-derived compounds): 50%
- pEC50 (coumarin-derived compounds): 4.70

Structure (SMILES): COc1cc(Br)ccc1/N=N/c1cc(OC)c2oc(=O)c(C(=O)O)cc2c1 [LSP9-3163]
- % inhibition of GLU vesicular transport at 20 μM (coumarin-derived compounds): 9%

Structure (SMILES): O=C(O)c1cc2cc(-n3cc(-c4ccccc4)nn3)ccc2oc1=O [LSP17-1100, 2-oxo-6-(4-phenyl-1H-1,2,3-triazol-1-yl)-2H-chromene-3-carboxylic Acid]
- % inhibition of GLU vesicular transport at 20 μM (coumarin-derived compounds): 48%
- pEC50 (coumarin-derived compounds): 4.64

Structure (SMILES): CCOC(=O)c1cc(C(=O)OCC)c2cc(-c3ccc(-c4ccc(-c5ccc6nc(C(=O)OCC)cc(C(=O)OCC)c6c5)cc4)cc3)ccc2n1 [LSP13-1153-YL153, Tetraethyl 6,6′-(biphenyl-4,4′-diyl)diquinoline-2,4-dicarboxylate]
- % inhibition of GLU vesicular transport at 20 μM (quinoline-derived compounds): 69%
- pEC50 (quinoline-derived compounds): 4.91

Structure (SMILES): O=C(O)c1cc2cc(/N=N/c3ccc(Br)cc3)c(O)cc2oc1=O [LSP9-5096, (E)-6-((4-bromophenyl)diazenyl)-7-hydroxy-2-oxo-2H-chromene-3-carboxylic Acid]
- % inhibition of GLU vesicular transport at 20 μM (coumarin-derived compounds): 10%

Structure (SMILES): COc1cc2oc(=O)c(C(=O)O)cc2cc1-n1cc(-c2ccccc2)nn1 [LSP17-1116, 7-methoxy-2-oxo-6-(4-phenyl-1H-1,2,3-triazol-1-yl)-2H-chromene-3-carboxylic Acid]
- % inhibition of GLU vesicular transport at 20 μM (coumarin-derived compounds): 45%
- pEC50 (coumarin-derived compounds): 4.60

Structure (SMILES): COc1cc(Br)ccc1/N=N/c1cc2cc(C(=O)O)c(=O)oc2cc1OC [LSP9-4150]
- % inhibition of GLU vesicular transport at 20 μM (coumarin-derived compounds): 15%

Structure (SMILES): O=C(O)c1cc(C(=O)O)c2cc(-c3ccc(-c4ccc(-c5ccc6nc(C(=O)O)cc(C(=O)O)c6c5)cc4)cc3)ccc2n1 [LSP13-1160-YL160, 6,6′-(Biphenyl-4,4′-diyl)diquinoline-2,4-dicarboxylic Acid]
- % inhibition of GLU vesicular transport at 20 μM (quinoline-derived compounds): 100%
- pEC50 (quinoline-derived compounds): 5.44

Structure (SMILES): O=C(O)c1cc2cc(/N=N/c3ccccc3)c(O)cc2oc1=O [LSP9-4153, (E)-7-hydroxy-2-oxo-6-(phenyldiazenyl)-2H-chromene-3-carboxylic Acid]
- % inhibition of GLU vesicular transport at 20 μM (coumarin-derived compounds): 12%

Structure (SMILES): Nc1ccc(-c2ccc(C#Cc3ccc4oc(=O)c(C(=O)O)cc4c3)cc2)cc1 [LSP17-1125, 6-((4′-amino-[1,1′-biphenyl]-4-yl)ethynyl)-2-oxo-2H-chromene-3-carboxylic Acid]
- % inhibition of GLU vesicular transport at 20 μM (coumarin-derived compounds): 100%
- potency in words (EC50): effective at a very low concentration
- pEC50 (coumarin-derived compounds): 5.30

Structure (SMILES): CCN(CC)c1cc2oc(=O)c(C(=O)O)cc2cc1C#Cc1ccccc1 [LSP17-1042, 7-(diethylamino)-2-oxo-6-(phenylethynyl)-2H-chromene-3-carboxylic Acid]
- % inhibition of GLU vesicular transport at 20 μM (coumarin-derived compounds): 12%

Structure (SMILES): CCN(CC)c1cc2oc(=O)c(C(=O)O)cc2cc1C#Cc1ccc(-c2ccc(N)cc2)cc1 [LSP17-1126, 6-((4′-amino-[1,1′-biphenyl]-4-yl)ethynyl)-7-(diethylamino)-2-oxo-2H-chromene-3-carboxylic Acid]
- % inhibition of GLU vesicular transport at 20 μM (coumarin-derived compounds): 100%
- potency in words (EC50): effective at a very low concentration
- pEC50 (coumarin-derived compounds): 5.30

Structure (SMILES): COc1cc(/N=N/c2ccc(Br)cc2)cc2cc(C(=O)O)c(=O)oc12 [LSP9-3162]
- % inhibition of GLU vesicular transport at 20 μM (coumarin-derived compounds): 42%

— patent US20260374750A1, “LIGANDS SPECIFICALLY TARGETING VESICULAR GLUTAMATE TRANSPORTERS FOR SUPER-RESOLUTION IMAGING” (SORBONNE UNIVERSITÉ, priority 2021, published 2026)
